In PMC10778976, “BAY-3827 and SBI-0206965: Potent AMPK Inhibitors That Paradoxically Increase Thr172 Phosphorylation” (International Journal of Molecular Sciences, 2023):

Tests used:
[1] = test system: purified rat liver AMPK; assay: Allosteric activation of rat liver AMPK by AMP with and without BAY-3827; format: biochemical; conditions: BAY-3827 30 nM
Text: (§1) AMPK assays measured the transfer of radioactivity from labelled ATP to a peptide substrate, which was separated from unreacted ATP by binding to P81 paper. This assay was described previously, except that we used [γ-^33P]ATP rather than [γ-^32P]ATP. The peptide substrate was the AMARA peptide in all experiments other than one, which analyzed allosteric activation by AMP (Figure 2A), when, for technical reasons, the SAMS peptide was used instead. With purified preparations of AMPK, it was assayed in solution, but for assays in cell lysates (Figure 3D and Figure 4D), it was first immunoprecipitated using a mixture of anti-α1 and -α2 antibodies and assayed in resuspended immunoprecipitates. After the initial immunoprecipitation of lysate containing 80 µg of protein, the pellets were washed twice with 1 mL of high salt IP buffer (50 mM Tris-HCL, pH 7.4 at 4 °C, 1 M NaCl, 1 mM EDTA, 1 mM EGTA, 50 mM NaF, 5 mM Na pyrophosphate, 1 mM dithiothreitol, 0.1% (v/v) Triton X-100) and twice with 1 mL of low salt IP buffer (as above but only 150 mM NaCl), followed by a final wash in 1 mL of assay buffer (50 mM Na Hepes, pH7.4, 150 mM NaCl, 1 mM dithiothreitol, 0.02% (v/v) Brij-35). After each wash, the pellet was recovered via centrifugation (16,000× g, 3 min) and then resuspended. The final resuspended pellets from each biological replicate were divided into two aliquots (40 µg lysate protein) to provide technical replicates and assayed as above.

[2] = target: T1, “naïve” (unphosphorylated), bacterially expressed human α1β1γ1 complex (Homo sapiens, UniProt Q13131+Q9Y478); assay: Allosteric activation of naïve (unphosphorylated) α1β1γ1 complex by MK-8722 with and without BAY-3827; format: biochemical; conditions: BAY-3827 30 nM
T1 construct: (His)6
Text: as §1

[3] = target: human α1β1γ1 complex (Homo sapiens, UniProt Q13131); conditions: previous estimate; read-out: IC50, inhibition of α1β1γ1; cited from earlier work
[4] = target: T2, LKB1 (human LKB1:STRADα:MO25α complex) (Homo sapiens, UniProt Q15831); conditions: single fixed inhibitor concentration (0.25 µM); cited from earlier work
T2 construct: made in house
T2 sequence (Q15831 1-433): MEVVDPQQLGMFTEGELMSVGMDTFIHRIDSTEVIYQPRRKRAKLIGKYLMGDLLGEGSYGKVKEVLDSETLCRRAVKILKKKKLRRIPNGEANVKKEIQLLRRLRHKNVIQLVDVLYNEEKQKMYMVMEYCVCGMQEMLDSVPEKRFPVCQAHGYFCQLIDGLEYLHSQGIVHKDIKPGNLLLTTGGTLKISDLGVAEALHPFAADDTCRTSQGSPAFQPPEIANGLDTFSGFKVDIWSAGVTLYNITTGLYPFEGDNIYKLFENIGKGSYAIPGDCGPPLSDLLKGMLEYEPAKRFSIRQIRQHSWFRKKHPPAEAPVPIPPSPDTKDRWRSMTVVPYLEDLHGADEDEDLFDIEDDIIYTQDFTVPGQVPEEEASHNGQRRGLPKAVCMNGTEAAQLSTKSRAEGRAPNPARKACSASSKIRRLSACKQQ
T2 sequence (Q7RTN6 1-431 partner): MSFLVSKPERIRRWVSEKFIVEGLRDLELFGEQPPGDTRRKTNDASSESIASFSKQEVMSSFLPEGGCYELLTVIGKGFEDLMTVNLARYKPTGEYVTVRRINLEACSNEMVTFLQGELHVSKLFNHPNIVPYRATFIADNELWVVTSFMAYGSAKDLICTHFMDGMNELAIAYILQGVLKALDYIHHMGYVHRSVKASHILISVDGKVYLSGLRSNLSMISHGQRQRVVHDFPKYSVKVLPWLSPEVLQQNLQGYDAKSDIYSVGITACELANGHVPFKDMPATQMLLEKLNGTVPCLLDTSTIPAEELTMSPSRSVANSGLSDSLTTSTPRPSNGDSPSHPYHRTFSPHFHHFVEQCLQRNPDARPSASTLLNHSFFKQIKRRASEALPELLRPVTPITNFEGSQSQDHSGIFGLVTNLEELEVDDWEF
T2 sequence (Q9Y376 1-341 partner): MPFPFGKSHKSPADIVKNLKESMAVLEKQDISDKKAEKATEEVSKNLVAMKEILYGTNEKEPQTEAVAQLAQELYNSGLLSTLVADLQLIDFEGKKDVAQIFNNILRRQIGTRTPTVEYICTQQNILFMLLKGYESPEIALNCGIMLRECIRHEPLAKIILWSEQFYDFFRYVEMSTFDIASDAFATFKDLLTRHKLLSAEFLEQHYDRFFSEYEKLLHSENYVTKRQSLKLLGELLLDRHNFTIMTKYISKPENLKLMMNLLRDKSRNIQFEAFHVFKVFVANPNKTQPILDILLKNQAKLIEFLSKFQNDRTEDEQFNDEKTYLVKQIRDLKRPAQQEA

T1 sequence (Q13131 whole entry): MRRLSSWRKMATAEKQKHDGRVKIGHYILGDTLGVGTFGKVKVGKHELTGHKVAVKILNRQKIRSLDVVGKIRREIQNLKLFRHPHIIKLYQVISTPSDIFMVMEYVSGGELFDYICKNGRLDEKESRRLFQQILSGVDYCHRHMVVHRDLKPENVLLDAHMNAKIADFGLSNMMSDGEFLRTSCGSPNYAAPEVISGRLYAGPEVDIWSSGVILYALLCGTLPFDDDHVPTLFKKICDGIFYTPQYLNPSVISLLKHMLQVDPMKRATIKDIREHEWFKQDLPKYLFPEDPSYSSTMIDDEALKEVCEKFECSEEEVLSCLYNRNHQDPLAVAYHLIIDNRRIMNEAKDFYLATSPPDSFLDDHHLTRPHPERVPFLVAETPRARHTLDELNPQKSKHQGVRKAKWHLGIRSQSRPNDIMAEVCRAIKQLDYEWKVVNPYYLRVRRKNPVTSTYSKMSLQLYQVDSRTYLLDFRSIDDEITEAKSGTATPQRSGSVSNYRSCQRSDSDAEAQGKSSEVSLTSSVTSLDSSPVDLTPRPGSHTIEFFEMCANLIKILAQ
T1 sequence (Q9Y478 2-270): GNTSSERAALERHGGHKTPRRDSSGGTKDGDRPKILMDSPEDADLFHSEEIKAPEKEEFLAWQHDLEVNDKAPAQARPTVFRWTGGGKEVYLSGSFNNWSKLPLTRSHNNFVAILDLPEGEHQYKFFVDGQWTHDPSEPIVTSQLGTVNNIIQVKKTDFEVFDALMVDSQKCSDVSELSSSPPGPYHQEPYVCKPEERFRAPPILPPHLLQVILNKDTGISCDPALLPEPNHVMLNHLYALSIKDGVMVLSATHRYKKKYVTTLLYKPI
T1 sequence (P54619 whole entry partner): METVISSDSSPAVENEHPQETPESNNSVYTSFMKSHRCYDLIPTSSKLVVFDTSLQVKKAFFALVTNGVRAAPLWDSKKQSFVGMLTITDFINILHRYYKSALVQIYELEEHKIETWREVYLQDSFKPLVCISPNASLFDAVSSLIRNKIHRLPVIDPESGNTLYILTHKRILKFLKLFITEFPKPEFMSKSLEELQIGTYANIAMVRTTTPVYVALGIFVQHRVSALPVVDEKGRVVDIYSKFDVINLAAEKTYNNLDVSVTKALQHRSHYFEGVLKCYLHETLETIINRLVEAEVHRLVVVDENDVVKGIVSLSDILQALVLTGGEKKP
Sequence of human α1β1γ1 complex (Q13131 whole entry): as the sequence (Q13131 whole entry) above
Sequence of human α1β1γ1 complex (P54619 whole entry, further chain): as the sequence (P54619 whole entry partner) above
Sequence of human α1β1γ1 complex (Q9Y478 2-270, further chain): as the sequence (Q9Y478 2-270) above

CCc1ccccc1C(=O)Nc1n[nH]c2c(C)c(F)c(C3C(C#N)=C(C)N(C)C(C)=C3C#N)cc12 [BAY-3827]
fold increase of EC50 for AMP [1]: 5 fold | basal activity (without AMP) ([1]; control without inhibitor 135): 46 nmol/min/mg | fold increase of EC50 for MK-8722 [2]: 7 fold | basal activity (without MK-8722) ([2]; control without inhibitor 11): 8.7 nmol/min/mg

CNC(=O)c1ccccc1Oc1nc(Nc2cc(OC)c(OC)c(OC)c2)ncc1Br [SBI-0206965]
IC50 [3]: 300 nM | inhibition of LKB1 [4]: did not inhibit
